Laboratory results published in PubChem BioAssay (NCI).
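Grown in 96-well plates, cells were treated for 48 hours with each compound at five concentrations. Insufficient inhibition: endpoint recorded as highest concentration tested. The concentration for full growth arrest is given as TGI.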

Key:
Assay in all cases: NCI-60 cell line screen, 48 h
IGROV1 ovarian = system: IGROV1 ovarian
SF-539 CNS = system: SF-539 CNS
NCI-H460 lung = system: NCI-H460 lung
M14 melanoma = system: M14 melanoma
SR leukemia = system: SR leukemia
U251 CNS = system: U251 CNS
NCI-H23 lung = system: NCI-H23 lung
RXF 393 renal = system: RXF 393 renal
HCT-15 colon = system: HCT-15 colon
CCRF-CEM leukemia = system: CCRF-CEM leukemia
PC-3 prostate = system: PC-3 prostate
COLO 205 colon = system: COLO 205 colon
SW-620 colon = system: SW-620 colon
HOP-62 NSCLC = system: HOP-62 NSCLC
OVCAR-3 ovarian = system: OVCAR-3 ovarian
786-0 renal = system: 786-0 renal
MOLT-4 leukemia = system: MOLT-4 leukemia
A498 renal = system: A498 renal
SN12C renal = system: SN12C renal
CAKI-1 renal = system: CAKI-1 renal
TK-10 renal = system: TK-10 renal
HT29 colon = system: HT29 colon
MDA-MB-231 breast = system: MDA-MB-231 breast
OVCAR-8 ovarian = system: OVCAR-8 ovarian
SK-MEL-5 melanoma = system: SK-MEL-5 melanoma
SNB-75 CNS = system: SNB-75 CNS
HCT-116 colon = system: HCT-116 colon
ACHN renal = system: ACHN renal
BT-549 breast = system: BT-549 breast
UACC-257 melanoma = system: UACC-257 melanoma
NCI-H226 lung = system: NCI-H226 lung
UO-31 renal = system: UO-31 renal
OVCAR-4 ovarian = system: OVCAR-4 ovarian
SF-295 CNS = system: SF-295 CNS
SF-268 CNS = system: SF-268 CNS
HS 578T breast = system: HS 578T breast
OVCAR-5 ovarian = system: OVCAR-5 ovarian
SK-MEL-2 melanoma = system: SK-MEL-2 melanoma
MDA-N = system: MDA-N
EKVX NSCLC = system: EKVX NSCLC
UACC-62 melanoma = system: UACC-62 melanoma
RPMI-8226 leukemia = system: RPMI-8226 leukemia
K-562 leukemia = system: K-562 leukemia
MDA-MB-435 = system: MDA-MB-435
NCI/ADR-RES ovarian = system: NCI/ADR-RES ovarian
HOP-92 NSCLC = system: HOP-92 NSCLC
MCF7 breast = system: MCF7 breast
A549 NSCLC = system: A549 NSCLC
T-47D breast = system: T-47D breast
KM12 colon = system: KM12 colon
SK-MEL-28 melanoma = system: SK-MEL-28 melanoma
SNB-19 CNS = system: SNB-19 CNS
DU-145 prostate = system: DU-145 prostate
NCI-H522 lung = system: NCI-H522 lung
SK-OV-3 ovarian = system: SK-OV-3 ovarian
MALME-3M melanoma = system: MALME-3M melanoma
LOX IMVI melanoma = system: LOX IMVI melanoma
HCC-2998 colon = system: HCC-2998 colon
HL-60(TB) leukemia = system: HL-60(TB) leukemia

Measured: TGI

O=C(O)c1ccccn1
not listed: DU-145 prostate | NCI-H522 lung | SK-OV-3 ovarian | MALME-3M melanoma | LOX IMVI melanoma | HCC-2998 colon | HL-60(TB) leukemia
> 100 µM: all other assays above

CCN(CC)Cc1ccc2cccnc2c1O
32.9 µM: A549 NSCLC
11.4 µM: OVCAR-3 ovarian
7.01 µM: OVCAR-8 ovarian
75 µM: HL-60(TB) leukemia
10 µM: MOLT-4 leukemia
51.2 µM: SF-295 CNS
18.5 µM: HCT-15 colon
47.2 µM: SN12C renal
2.1 µM: NCI/ADR-RES ovarian
80.1 µM: SK-MEL-2 melanoma
41.8 µM: HCT-116 colon
25.1 µM: SK-OV-3 ovarian
49.7 µM: MDA-N
12.8 µM: HT29 colon
59.7 µM: HCC-2998 colon
19.8 µM: NCI-H460 lung
23.7 µM: RPMI-8226 leukemia
45.5 µM: OVCAR-5 ovarian
18.4 µM: IGROV1 ovarian
33.5 µM: A498 renal
20.7 µM: SF-539 CNS
3.28 µM: NCI-H522 lung
12.7 µM: SNB-75 CNS
13.3 µM: CCRF-CEM leukemia
65.4 µM: HOP-62 NSCLC
33.1 µM: TK-10 renal
42 µM: COLO 205 colon
not listed: M14 melanoma | 786-0 renal | T-47D breast | KM12 colon
> 100 µM: all other assays above
